Starred links: 1 amine or outer side, 2 acyl side, 3 side chain; linkers in the order of their positions; H or OH if unused. Positions of bridges follow the written chain, without caps; N, C: chain ends. Non-standard residues stand in square brackets, D forms with d. Residues, ends and D or L forms follow the SMILES beside them. *: point of attachment. X62 = C[N+]1(CCCCc2cn(-c3ccc(C[C@H](N[*:1])C(=O)[*:2])cc3)nn2)CCOCC1; Me3N+(CH2)2O(CH2)2O(CH2)2CO = C[N+](C)(C)CCOCCOCCC(=O)*; CH2CH2OCH2CH2OCH2CH2NMe3+ = C[N+](C)(C)CCOCCOCC*; Trp(7-Me) = Cc1cccc2c(C[C@H](N)C(=O)O)c[nH]c12; Hexanoyl(6-NMe3+) = C[N+](C)(C)CCCCCC(=O)*; Decanoyl(3,6,9-trioxa) = COCCOCCOCC(=O)*; Lys(Me3) = C[N+](C)(C)CCCC[C@H](N)C(=O)O; 2Nal = N[C@@H](Cc1ccc2ccccc2c1)C(=O)O; AEF = NCCOc1ccc(C[C@H](N)C(=O)O)cc1; X24 = C[N+](C)(CCN[*:1])CC(=O)[*:2]; X65 = COCCOCCC[N+](C)(CCCOCCOC)CC*; 3Pal = N[C@@H](Cc1cccnc1)C(=O)O; Lys(Me) = CNCCCC[C@H](N)C(=O)O; X7 = COCCOCCOCCOCCOCCOCCC(=O)*; Pen = CC(C)(S)[C@H](N)C(=O)O; X18 = C[N+]1(C)CCOC(C*)C1; Thp = NC1(C(=O)O)CCOCC1; X3 = C[N+](C)(C)CCCCC*; Me2NCH2CH2 = CN(C)CC*; Sar = CNCC(=O)O
Legend:
[1] = Exposed Polar Surface Area (EPSA); type: physicochemical; conditions: SFC on Chirex 3014 column; sample 1 mM DMSO stock; read-out: EPSA
How it was run: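 EPSA, in Å^2, is read from SFC retention time through a linear relationship established with eight calibration standards. Separation uses a Chirex 3014 stationary phase, 35 °C, 14 MPa back pressure, and a 5–60% methanol/ammonium formate modifier gradient in CO2.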

IL-23R = molecular target: T1, IL-23R (Homo sapiens, UniProt Q5VWK5); assay: IL23R Reporter Assay; type: cell-based; conditions: HEK293 cells containing IL-23R, IL-12RP1 and STAT-inducible firefly luciferase reporter; 10 ng/mL IL-23 (EC90); 5 h at 37° C.; read-out: IL23R Reporter Assay
T1 construct: host or cells: HEK293
T1 sequence (Q5VWK5 24-629): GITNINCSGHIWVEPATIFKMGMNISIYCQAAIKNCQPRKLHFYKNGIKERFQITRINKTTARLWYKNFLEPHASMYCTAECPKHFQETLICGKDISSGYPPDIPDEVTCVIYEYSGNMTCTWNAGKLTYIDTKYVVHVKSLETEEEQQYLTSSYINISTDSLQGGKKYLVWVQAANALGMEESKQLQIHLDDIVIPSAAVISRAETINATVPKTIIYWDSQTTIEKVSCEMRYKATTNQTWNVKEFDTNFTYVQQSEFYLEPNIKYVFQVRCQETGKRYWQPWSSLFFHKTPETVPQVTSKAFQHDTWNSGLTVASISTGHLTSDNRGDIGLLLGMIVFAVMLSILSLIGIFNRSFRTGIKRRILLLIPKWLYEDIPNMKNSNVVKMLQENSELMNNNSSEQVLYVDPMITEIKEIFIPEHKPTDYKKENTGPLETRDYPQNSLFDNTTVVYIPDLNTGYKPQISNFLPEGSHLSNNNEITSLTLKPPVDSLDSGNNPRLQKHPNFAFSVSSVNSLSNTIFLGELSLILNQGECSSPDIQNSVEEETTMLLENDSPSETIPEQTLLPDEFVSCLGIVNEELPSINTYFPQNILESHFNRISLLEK

Row | Structure (SMILES) | EPSA [1] [A^2] | IC50 (IL-23R) [nM]
1 | CC(=O)N(C)CCCC[C@@H]1NC(=O)[C@H](Cc2c[nH]c3c(C)cccc23)NC(=O)[C@H]([C@@H](C)O)NC(=O)[C@H](CC(=O)N(C)C)NC(=O)[C@@H](NC(=O)CCOCCOCC[N+](C)(C)C)C(C)(C)SSC(C)(C)[C@@H](C(=O)NC(Cc2ccc(OCCN(CCOCC[N+](C)(C)C)CCOCC[N+](C)(C)C)cc2)C(=O)N[C@@H](Cc2ccc3ccccc3c2)C(=O)NC2(C(=O)N[C@@H](CCCCN(C)C(C)=O)C(=O)N[C@@H](CC(N)=O)C(=O)N[C@@H](Cc3cccnc3)C(=O)N(C)CC(=O)N(C)C)CCOCC2)NC1=O (stereo partly drawn) [compound 265, cPEG3aCO-Pen(3)-N(N(Me)2)-T-7MeW-K(NMeAc)-Pen(3)-AEF(BisPEG2a)(RS)-2Nal-THP-K(NMeAc)-N-3Pya-Sar-CON(Me)2] | 159 | 6.4
2 | CC(=O)N(C)CCCC[C@@H]1NC(=O)[C@H](Cc2c[nH]c3c(C)cccc23)NC(=O)[C@H]([C@@H](C)O)NC(=O)[C@H](CC(=O)N(C)C)NC(=O)[C@@H](NC(=O)CCOCCOCC[N+](C)(C)C)C(C)(C)SSC(C)(C)[C@@H](C(=O)N[C@@H](Cc2ccc(OCC3C[N+](C)(C)CCO3)cc2)C(=O)N[C@@H](Cc2ccc3ccccc3c2)C(=O)NC2(C(=O)N[C@@H](CCCCN(C)C(C)=O)C(=O)N[C@@H](CC(N)=O)C(=O)N[C@@H](Cc3cccnc3)C(=O)N(C)CC(=O)N(C)C)CCOCC2)NC1=O (stereo partly drawn) [compound 202, cPEG3aCO-Pen(3)-N(N(Me)2)-T-7MeW-K(NMeAc)-Pen(3)-DMPMF-2Nal-THP-K(NMeAc)-N-3Pya-Sar-CON(Me)2] ({Me3N+(CH2)2O(CH2)2O(CH2)2CO}-[Pen]D(NMe2)T[Trp(7-Me)][Lys(Me)](Ac)[Pen]Y(X18)[2Nal][Thp][Lys(Me)](Ac)N[3Pal][Sar]-NMe2; disulfide 1-6) | 146 | 3.5
3 | COCCOCCOCC(=O)NCC[N+](C)(C)CC(=O)N[C@@H]1C(=O)N[C@@H](CC(=O)N(C)C)C(=O)N[C@@H]([C@@H](C)O)C(=O)N[C@@H](Cc2c[nH]c3c(C)cccc23)C(=O)N[C@@H](CCCCN(C)C(C)=O)C(=O)N[C@H](C(=O)N[C@@H](Cc2ccc(OCCN)cc2)C(=O)N[C@@H](Cc2ccc3ccccc3c2)C(=O)NC2(C(=O)N[C@@H](CCCCNC(C)=O)C(=O)N[C@@H](CC(N)=O)C(=O)N[C@@H](Cc3cccnc3)C(=O)N(C)CC(N)=O)CCOCC2)C(C)(C)SSC1(C)C [compound 148, mPEG3CO-SP6-Pen(3)-N(N(Me)2)-T-7MeW-K(NMeAc)-Pen(3)-AEF-2Nal-THP-K(Ac)-N-3Pya-Sar-CONH2] ({Decanoyl(3,6,9-trioxa)}-[X24][Pen]D(NMe2)T[Trp(7-Me)][Lys(Me)](Ac)[Pen][AEF][2Nal][Thp]K(Ac)N[3Pal][Sar]-NH2; disulfide 2-7) | 153 | 2.6
4 | COCCOCCOCCOCCOCCOCCC(=O)N[C@@H]1C(=O)N[C@@H](CC(N)=O)C(=O)N[C@@H]([C@@H](C)O)C(=O)N[C@@H](Cc2c[nH]c3c(C)cccc23)C(=O)N[C@@H](CCCCNC(C)=O)C(=O)N[C@H](C(=O)N[C@@H](Cc2ccc(OCCN)cc2)C(=O)N[C@@H](Cc2ccc3ccccc3c2)C(=O)NC2(C(=O)N[C@@H](CCCCNC(C)=O)C(=O)N[C@@H](CC(N)=O)C(=O)N[C@@H](Cc3cccnc3)C(=O)N(C)CC(N)=O)CCOCC2)C(C)(C)SSC1(C)C [compound 64] (X7-[Pen]NT[Trp(7-Me)]K(Ac)[Pen][AEF][2Nal][Thp]K(Ac)N[3Pal][Sar]-NH2; disulfide 1-6 (inferred)) | 160 | 4.9
5 | Cc1cccc2c(C[C@@H]3NC(=O)[C@H]([C@@H](C)O)NC(=O)[C@H](CC(=O)N(C)C)NC(=O)[C@@H](NC(=O)CCCCC[N+](C)(C)C)C(C)(C)SSC(C)(C)[C@@H](C(=O)N[C@@H](Cc4ccc(OCCN(C)C)cc4)C(=O)N[C@@H](Cc4ccc5ccccc5c4)C(=O)NC4(C(=O)N[C@@H](CCC(=O)O)C(=O)N[C@@H](CC(N)=O)C(=O)N[C@@H](Cc5cccnc5)C(=O)N(C)CC(=O)N(C)C)CCOCC4)NC(=O)[C@H](CCC(=O)N(C)C)NC3=O)c[nH]c12 [compound 97, 5cpaCO-Pen(3)-N(N(Me)2)-T-7MeW-Q(N(Me)2)-Pen(3)-AEF(N(Me)2)-2Nal-THP-E-N-3Pya-Sar-CON(Me)2] ({Hexanoyl(6-NMe3+)}-[Pen]D(NMe2)T[Trp(7-Me)]E(NMe2)[Pen]Y(Me2NCH2CH2)[2Nal][Thp]EN[3Pal][Sar]-NMe2; disulfide 1-6) | 152 | 5.8

Now those with a lower IC50 (IL-23R), led by results:

Row | EPSA [1] [A^2] | IC50 (IL-23R) [nM] | Structure (SMILES)
6 | 156 | 1.5 | CC(=O)N(C)CCCC[C@@H]1NC(=O)[C@H](Cc2c[nH]c3c(C)cccc23)NC(=O)[C@H]([C@@H](C)O)NC(=O)[C@H](CC(=O)N(C)C)NC(=O)[C@@H](NC(=O)CCOCCOCC[N+](C)(C)C)C(C)(C)SSC(C)(C)[C@@H](C(=O)N[C@@H](Cc2ccc(-n3cc(CCCC[N+]4(C)CCOCC4)nn3)cc2)C(=O)N[C@@H](Cc2ccc3ccccc3c2)C(=O)NC2(C(=O)N[C@@H](CCCCN(C)C(C)=O)C(=O)N[C@@H](CC(N)=O)C(=O)N[C@@H](Cc3cccnc3)C(=O)N(C)CC(=O)N(C)C)CCOCC2)NC1=O [compound 336, cPEG3aCO-Pen(3)-N(N(Me)2)-T-7MeW-K(NMeAc)-Pen(3)-F(4TzlMMo4)-2Nal-THP-K(NMeAc)-N-3Pya-Sar-CON(Me)2] ({Me3N+(CH2)2O(CH2)2O(CH2)2CO}-[Pen]D(NMe2)T[Trp(7-Me)][Lys(Me)](Ac)[Pen][X62][2Nal][Thp][Lys(Me)](Ac)N[3Pal][Sar]-NMe2; disulfide 1-6)
7 | 134 | 1.8 | COCCOCCC[N+](C)(CCCOCCOC)CCOc1ccc(C[C@H](NC(=O)[C@H]2NC(=O)[C@H](CCCCN(C)C(C)=O)NC(=O)[C@H](Cc3c[nH]c4c(C)cccc34)NC(=O)[C@H]([C@@H](C)O)NC(=O)[C@H](CC(=O)N(C)C)NC(=O)[C@@H](NC(=O)CCOCCOCC[N+](C)(C)C)C(C)(C)SSC2(C)C)C(=O)N[C@@H](Cc2ccc3ccccc3c2)C(=O)NC2(C(=O)N[C@@H](CCCCN(C)C(C)=O)C(=O)N[C@@H](CC(N)=O)C(=O)N[C@@H](Cc3cccnc3)C(=O)N(C)CC(=O)N(C)C)CCOCC2)cc1 [compound 221, cPEG3aCO-Pen(3)-N(N(Me)2)-T-7MeW-K(NMeAc)-Pen(3)-AEF(BisMEPa)-2Nal-THP-K(NMeAc)-N-3Pya-Sar-CON(Me)2Â] ({Me3N+(CH2)2O(CH2)2O(CH2)2CO}-[Pen]D(NMe2)T[Trp(7-Me)][Lys(Me)](Ac)[Pen]Y(X65)[2Nal][Thp][Lys(Me)](Ac)N[3Pal][Sar]-NMe2; disulfide 1-6)
8 | 156 | 2.1 | CC(=O)N(C)CCCC[C@@H]1NC(=O)[C@H](Cc2c[nH]c3c(C)cccc23)NC(=O)[C@H]([C@@H](C)O)NC(=O)[C@H](CC(=O)N(C)C)NC(=O)[C@@H](NC(=O)CCOCCOCC[N+](C)(C)C)C(C)(C)SSC(C)(C)[C@@H](C(=O)N[C@@H](Cc2ccc(OCCOCCOCC[N+](C)(C)C)cc2)C(=O)N[C@@H](Cc2ccc3ccccc3c2)C(=O)NC2(C(=O)N[C@@H](Cc3ccccc3)C(=O)N[C@@H](CC(N)=O)C(=O)N[C@@H](Cc3cccnc3)C(=O)N(C)CC(=O)N(C)C)CCOCC2)NC1=O [compound 469, cPEG3aCO-Pen(3)-N(N(Me)2)-T-7MeW-K(NMeAc)-Pen(3)-APEG3F-2Nal-THP-F-N-3Pya-Sar-CON(Me)2] ({Me3N+(CH2)2O(CH2)2O(CH2)2CO}-[Pen]D(NMe2)T[Trp(7-Me)][Lys(Me)](Ac)[Pen]Y(CH2CH2OCH2CH2OCH2CH2NMe3+)[2Nal][Thp]FN[3Pal][Sar]-NMe2; disulfide 1-6)
9 | 159 | 1.2 | CC(=O)N(C)CCCC[C@@H]1NC(=O)[C@H](Cc2c[nH]c3c(C)cccc23)NC(=O)[C@H]([C@@H](C)O)NC(=O)[C@H](CCCC[N+](C)(C)C)NC(=O)[C@@H](NC(=O)CCOCCOCC[N+](C)(C)C)C(C)(C)SSC(C)(C)[C@@H](C(=O)N[C@@H](Cc2ccc(OCCCCC[N+](C)(C)C)cc2)C(=O)N[C@@H](Cc2ccc3ccccc3c2)C(=O)NC2(C(=O)N[C@@H](CCCCN(C)C(C)=O)C(=O)N[C@@H](CC(N)=O)C(=O)N[C@@H](Cc3cccnc3)C(=O)N(C)CC(=O)N(C)C)CCOCC2)NC1=O [compound 328, cPEG3aCO-Pen(3)-K(Me)3-T-7MeW-K(NMeAc)-Pen(3)-TMAPF-2Nal-THP-K(NMeAc)-N-3Pya-Sar-CON(Me)2] ({Me3N+(CH2)2O(CH2)2O(CH2)2CO}-[Pen][Lys(Me3)]T[Trp(7-Me)][Lys(Me)](Ac)[Pen]Y(X3)[2Nal][Thp][Lys(Me)](Ac)N[3Pal][Sar]-NMe2; disulfide 1-6)

— US20260022143A1, “Cyclic Peptide Inhibitors of IL-23” (JANSSEN PHARMACEUTICA NV, priority 2022, published 2026)
